Publication PMC11217295, “The immune response to RNA suppresses nucleic acid synthesis by limiting ribose 5-phosphate” (The EMBO Journal, 2024)

Target: Ribose 5-Phosphate Isomerase A (RPIA) (Homo sapiens, UniProt P49247)
Test: continuous spectrophotometric isomerase assay with recombinant RPIA
Assay type: biochemical
Set-up: recombinant Streptavidin-tagged human RPIA expressed in E. coli
Description: continuous spectrophotometric isomerase assay with recombinant RPIA on Ribose 5-Phosphate Isomerase A (RPIA) | validated its activity against the human isomerase in a continuous spectrophotometric assay.

Chain of Ribose 5-Phosphate Isomerase A (RPIA) (P49247 whole entry): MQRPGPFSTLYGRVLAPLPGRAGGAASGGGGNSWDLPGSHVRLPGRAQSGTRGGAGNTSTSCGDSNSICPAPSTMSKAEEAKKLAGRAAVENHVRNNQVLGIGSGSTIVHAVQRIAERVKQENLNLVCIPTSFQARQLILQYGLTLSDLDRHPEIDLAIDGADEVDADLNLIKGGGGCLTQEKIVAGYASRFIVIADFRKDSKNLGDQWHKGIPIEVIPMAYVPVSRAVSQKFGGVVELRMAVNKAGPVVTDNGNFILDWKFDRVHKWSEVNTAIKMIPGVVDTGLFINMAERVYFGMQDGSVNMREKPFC

O=C(NO)[C@H](O)[C@H](O)COP(=O)(O)O [JNB-hu20-057-2A]
continuous spectrophotometric isomerase assay with recombinant RPIA: validated its activity against the human isomerase in a continuous spectrophotometric assay. This shows the inhibitor suppresses the activity
